# According to ChEMBL document CHEMBL3352114, “Synthesis and biological evaluation of unnatural derivatives of narciclasine: 7-aza-nornarciclasine and its N-oxide” (Bioorg Med Chem Lett, 2014):
# pIC50: −log10 of the molar value.
# Key:
# Type in all cases: functional, cell-based
# DU-145 = assay: Cytotoxicity against human DU145 cells
# HeLa = assay: Cytotoxicity against human HeLa cells after 48 hrs by MTT assay; details: for pIC50: Homo sapiens, HeLa, 48 h, read-out: IC50
# [1] = Cytotoxicity against human BxPC3 cells; details: BXPC-3
# NCI-H460 = assay: Cytotoxicity against human NCI-H460 cells
# MCF7 = assay: Cytotoxicity against human MCF7 cells after 48 hrs by MTT assay; details: for pIC50: Homo sapiens, MCF7, 48 h, read-out: IC50
Structure (SMILES),pIC50 (DU-145),pIC50 (HeLa),pIC50 [1],pIC50 (NCI-H460),pIC50 (MCF7),IC50 (HeLa; hela),IC50 (MCF7; mcf7)
O=C(OC[C@H]1[C@H](O)[C@@H](O)[C@@H](O)[C@@H]2NC(=O)c3c(cc4c(c3O)OCO4)[C@@H]12)c1ccccc1,8.00,> 6.40,8.00,7.52,> 6.40,–,–
O=C1N[C@@H]2C(=C[C@H](O)[C@@H](O)[C@H]2O)c2cccnc21 [listing 1 of 2 here],–,< 4.00,–,–,< 4.00,–,–
O=C1N[C@@H]2C(=C[C@H](O)[C@@H](O)[C@H]2O)c2cc3c(c(O)c21)OCO3 [NARCICLASINE],7.52,–,7.30,7.30,–,–,–
CC(=O)OC[C@H]1[C@H](O)[C@@H](O)[C@@H](O)[C@@H]2NC(=O)c3c(cc4c(c3O)OCO4)[C@@H]12,–,> 6.40,7.15,–,> 6.40,–,–
O=C1N[C@@H]2C(=C[C@H](O)[C@@H](O)[C@H]2O)c2cccnc21 [listing 2 of 2 here],–,–,–,–,–,Not Active,Not Active
O=C1N[C@@H]2C(=C[C@H](O)[C@@H](O)[C@H]2O)c2ccc[n+]([O-])c21,–,< 4.00,–,–,< 4.00,–,–
